Consider 37 compounds from patent publication US9187428B2, “Substituted dicyanopyridines and use thereof” (Bayer Intellectual Property GmbH, priority 2010, dated 2015).

Structures are written as SMILES.

Holding throughout (assay type): cell-based
In one assay the target is adenosine A2a receptor (Homo sapiens (Human), UniProt P29274). As to the kind of experiment: Indirect determination of adenosine agonism by gene expression (luciferase reporter), A2a cells. Particulars: CHO cells stably transfected with adenosine A2a receptor, 50% of maximum stimulation. The source says:
(§1) B-1. Indirect Determination of the Adenosine Agonism by Way of Gene Expression
(§2) Cells of the CHO (Chinese Hamster Ovary) permanent line are transfected stably with the cDNA for the adenosine receptor subtypes A1, A2a and A2b. The adenosine A1 receptors are coupled to the adenylate cyclase by way of Gi proteins, while the adenosine A2a and A2b receptors are coupled by way of Gs proteins. In correspondence with this, the formation of cAMP in the cell is inhibited or stimulated, respectively. After that, expression of the luciferase is modulated by way of a cAMP-dependent promoter. The luciferase test is optimized, with the aim of high sensitivity and reproducibility, low variance and good suitability for implementation on a robot system, by varying several test parameters, such as cell density, duration of the growth phase and the test incubation, forskolin concentration and medium composition. The following test protocol is used for pharmacologically characterizing cells and for the robot-assisted substance screening:
(§3) The stock cultures are grown, at 37° C. and under 5% CO2, in DMEM/F12 medium containing 10% FCS (fetal calf serum) and in each case split 1:10 after 2-3 days. Test cultures are seeded in 384-well plates with 2000 cells per well and grown at 37° C. for approx. 48 hours. The medium is then replaced with a physiological sodium chloride solution (130 mM sodium chloride, 5 mM potassium chloride, 2 mM calcium chloride, 20 mM HEPES, 1 mM magnesium chloride hexahydrate, 5 mM sodium bicarbonate, pH 7.4). The substances to be tested, which are dissolved in DMSO, are pipetted into the test cultures (maximum final concentration of DMSO in the test mixture: 0.5%) in a dilution series of from 5×10^−11 M to 3×10^−6 M (final concentration). 10 minutes later, forskolin is added to the A1 cells and all the cultures are subsequently incubated at 37° C. for four hours. After that, 35 μl of a solution which is composed of 50% lysis reagent (30 mM disodium hydrogenphosphate, 10% glycerol, 3% TritonX100, 25 mM TrisHCl, 2 mM dithiotreitol (DTT), pH 7.8) and 50% luciferase substrate solution (2.5 mM ATP, 0.5 mM luciferin, 0.1 mM coenzyme A, 10 mM tricine, 1.35 mM magnesium sulfate, 15 mM DTT, pH 7.8) are added to the test cultures, which are shaken for approx. 1 minute and the luciferase activity is measured using a camera system. The EC50 values are determined, i.e., the concentrations at which 50% of the luciferase response is inhibited in the case of the A1 cell, and, respectively, 50% of the maximum stimulation with the corresponding substance is achieved in the case of the A2b and A2a cells. […] Pharmacol., 357, 1-9 (1998)].
(§4) Table A below lists the EC50 values of representative working examples for the receptor stimulation on adenosine A1, A2a and A2b receptor subtypes: […]

The target in the next assay is adenosine A1 receptor (Homo sapiens (Human), UniProt P30542). Nature of the assay: Indirect determination of adenosine agonism by gene expression (luciferase reporter), A1 cells. Conditions: CHO cells stably transfected with adenosine A1 receptor; 1 μM forskolin; 50% inhibition of luciferase response.
adenosine A1 receptor, sequence (P30542 whole entry): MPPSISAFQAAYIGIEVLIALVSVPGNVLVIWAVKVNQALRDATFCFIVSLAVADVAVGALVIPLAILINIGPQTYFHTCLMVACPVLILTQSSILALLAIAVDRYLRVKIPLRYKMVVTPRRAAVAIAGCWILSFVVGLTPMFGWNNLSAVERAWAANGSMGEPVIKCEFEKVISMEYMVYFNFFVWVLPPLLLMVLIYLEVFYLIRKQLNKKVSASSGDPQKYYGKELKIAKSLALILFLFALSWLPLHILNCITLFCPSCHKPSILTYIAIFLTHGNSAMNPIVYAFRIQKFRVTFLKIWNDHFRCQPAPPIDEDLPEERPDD
Description: as §1, §2, §3, §4
(In general: Reporter assays use an easily measured gene product as a stand-in for the process of interest.)

Another assay deals with adenosine A2b receptor (Homo sapiens (Human), UniProt P29275). Nature of the assay: Indirect determination of adenosine agonism by gene expression (luciferase reporter), A2b cells. Particulars: CHO cells stably transfected with adenosine A2b receptor, 50% of maximum stimulation.
adenosine A2b receptor, sequence (P29275 whole entry): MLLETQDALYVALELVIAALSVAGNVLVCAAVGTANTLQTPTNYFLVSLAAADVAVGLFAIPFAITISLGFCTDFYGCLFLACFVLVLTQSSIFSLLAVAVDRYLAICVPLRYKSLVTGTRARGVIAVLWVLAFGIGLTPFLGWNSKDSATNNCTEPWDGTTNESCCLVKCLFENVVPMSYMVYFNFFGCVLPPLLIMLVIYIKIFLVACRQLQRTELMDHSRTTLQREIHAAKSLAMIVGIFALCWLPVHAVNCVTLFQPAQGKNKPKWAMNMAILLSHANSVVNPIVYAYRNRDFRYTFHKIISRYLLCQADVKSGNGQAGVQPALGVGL
Description: as §1, §2, §3, §4

adenosine A2a receptor, sequence (P29274 whole entry): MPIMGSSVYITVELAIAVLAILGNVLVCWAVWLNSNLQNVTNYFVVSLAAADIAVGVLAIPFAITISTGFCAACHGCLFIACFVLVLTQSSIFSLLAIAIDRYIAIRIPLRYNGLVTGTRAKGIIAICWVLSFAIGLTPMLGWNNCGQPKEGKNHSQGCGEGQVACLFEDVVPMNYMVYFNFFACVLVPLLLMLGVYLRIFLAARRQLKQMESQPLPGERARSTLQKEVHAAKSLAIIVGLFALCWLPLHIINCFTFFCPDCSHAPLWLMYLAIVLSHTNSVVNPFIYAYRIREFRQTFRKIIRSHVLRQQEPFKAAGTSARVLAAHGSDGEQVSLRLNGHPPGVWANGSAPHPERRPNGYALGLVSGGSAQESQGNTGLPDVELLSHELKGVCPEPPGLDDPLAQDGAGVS

For `CNC(=O)c1cc(C(C)Sc2nc(N)c(C#N)c(-c3ccc(OCC(F)(F)F)cc3)c2C#N)ccn1` (racemic) [Example 56, rac-4-[1-({6-Amino-3,5-dicyano-4-[4-(2,2,2-trifluoroethoxy)phenyl]pyridin-2-yl}sulfanyl)ethyl]-N-methylpyridine-2-carboxamide], the EC50 is ≥ 3000 nM at adenosine A2a receptor, 2.8 nM at adenosine A1 receptor and ≥ 3000 nM on adenosine A2b receptor.

Take `CC(Sc1nc(N)c(C#N)c(-c2ccc(OCCO)cc2)c1C#N)c1cccc(C(N)=O)c1` (racemic) [Example 60, rac-3-[1-({6-Amino-3,5-dicyano-4-[4-(2-hydroxyethoxy)phenyl]pyridin-2-yl}sulfanyl)ethyl]-benzenecarboxamide]: the EC50 is ≥ 3000 nM at adenosine A2a receptor, 0.4 nM at adenosine A1 receptor and 1440 nM at adenosine A2b receptor.

As to `CNC(=O)c1cccc(C(C)Sc2nc(N)c(C#N)c(-c3ccc(OCCO)cc3)c2C#N)c1` (racemic) [Example 62, rac-3-[1-({6-Amino-3,5-dicyano-4-[4-(2-hydroxyethoxy)phenyl]pyridin-2-yl}sulfanyl)ethyl]-N-methylbenzenecarboxamide], the results for the EC50 at adenosine A2a receptor, at adenosine A1 receptor and on adenosine A2b receptor were ≥ 3000 nM, 0.3 nM and 262 nM, respectively.

Compound `CNC(=O)c1cc(CSc2nc(N)c(C#N)c(-c3ccc(F)cc3)c2C#N)ccn1` [Example 2] gave a concentration giving a half-maximal response (EC50) on adenosine A1 receptor of 0.3 nM.

On to `CNC(=O)c1cc(CSc2nc(N)c(C#N)c(-c3ccc(OC)cc3)c2C#N)ccn1` [Example 3], for which the EC50 at adenosine A2a receptor is 425 nM; at adenosine A1 receptor, 0.2 nM.

Take `CNC(=O)c1cc(CSc2nc(N)c(C#N)c(-c3ccc4c(c3)OCCO4)c2C#N)ccn1` [Example 6]: the EC50 is 0.06 nM at adenosine A1 receptor and 71 nM on adenosine A2b receptor.

`CNC(=O)c1cc(CSc2nc(N)c(C#N)c(-c3ccc(OCC(C)(C)O)cc3)c2C#N)ccn1` [Example 7]: the figures for the EC50 at adenosine A2a receptor, at adenosine A1 receptor and on adenosine A2b receptor were 460 nM, 0.1 nM and 32 nM, respectively.

With `N#Cc1c(N)nc(SCc2cccc(C(=O)O)c2)c(C#N)c1-c1ccc(F)cc1` [Example 14, 3-({[6-amino-3,5-dicyano-4-(4-fluorophenyl)pyridin-2-yl]sulfanyl}methyl)-benzenecarboxylic acid], the midpoint of the response at adenosine A1 receptor, the EC50, lay at 3.5 nM.

Consider `N#Cc1cnc(SCc2cccc(C(=O)O)c2)c(C#N)c1-c1ccccc1` [Example 15], for which the EC50 on adenosine A1 receptor is 0.8 nM; at adenosine A2b receptor, 106 nM.

As for `CNC(=O)c1cc(COc2nc(N)c(C#N)c(-c3ccc(F)cc3)c2C#N)ccn1` [Example 21, 4-({[6-Amino-3,5-dicyano-4-(4-fluorophenyl)pyridin-2-yl]oxy}methyl)-N-methylpyridine-2-carboxamide], the EC50 on adenosine A1 receptor came out at 0.9 nM.

Turning to `CCOc1ccc(-c2c(C#N)c(N)nc(SCc3ccnc(C(=O)NC)c3)c2C#N)cc1` [Example 26], the EC50 at adenosine A2a receptor was determined as 65 nM; at adenosine A1 receptor, 0.2 nM; at adenosine A2b receptor, 243 nM.

`CNC(=O)c1cc(CSc2nc(N)c(C#N)c(-c3ccc(F)c(OC)c3)c2C#N)ccn1` [Example 27] yielded an EC50 at adenosine A1 receptor of 0.3 nM.

Regarding `CNC(=O)c1cc(CSc2nc(N)c(C#N)c(-c3ccc(NC)cc3)c2C#N)ccn1` [Example 28], the EC50 on adenosine A2a receptor turned out to be 1640 nM; on adenosine A1 receptor, 0.4 nM.

For the compound `CNC(=O)c1cc(CSc2nc(N)c(C#N)c(-c3cccc(OCCO)c3)c2C#N)ccn1` [Example 29], the EC50 at adenosine A1 receptor was 0.5 nM.

As to `CNC(=O)c1cc(CSc2ncc(C#N)c(-c3ccc(OCCO)cc3)c2C#N)ccn1` [Example 30], the EC50 is 1110 nM at adenosine A2a receptor, 0.4 nM on adenosine A1 receptor and 122 nM at adenosine A2b receptor.

For `CNC(=O)c1cc(CSc2ncc(C#N)c(-c3ccc(OC)cc3)c2C#N)ccn1` [Example 31], the EC50 turned out to be 707 nM at adenosine A2a receptor, 1.6 nM at adenosine A1 receptor and 708 nM on adenosine A2b receptor.

On to `CNC(=O)c1cc(CSc2ncc(C#N)c(-c3ccccc3)c2C#N)ccn1` [Example 32], for which the EC50 worked out at 0.4 nM on adenosine A1 receptor and 2120 nM on adenosine A2b receptor.

In the case of `CS(=O)(=O)Nc1cccc(CSc2nc(N)c(C#N)c(-c3ccc(F)cc3)c2C#N)c1` [Example 37], the EC50 on adenosine A2a receptor worked out at 1780 nM; on adenosine A1 receptor, 0.7 nM.

At adenosine A1 receptor, `CS(=O)(=O)Nc1cccc(CSc2nc(N)c(C#N)c(-c3ccc(F)c(F)c3)c2C#N)c1` [Example 38] had an EC50 of 0.5 nM.

At adenosine A1 receptor, `CNC(=O)c1cc(CSc2nc(N)c(C#N)c(-c3ccc(OC)cc3OC)c2C#N)ccn1` [Example 44] had an EC50 of 0.4 nM.

With `CNC(=O)c1cc(CSc2nc(N)c(C#N)c(-c3ccc(OS(=O)(=O)N(C)C)cc3)c2C#N)ccn1` [Example 46], the EC50 at adenosine A2a receptor was 781 nM; on adenosine A1 receptor, 0.04 nM; on adenosine A2b receptor it was 425 nM.

In turn, `CCCOc1cccc(-c2c(C#N)c(N)nc(SCc3ccnc(C(=O)NC)c3)c2C#N)c1` [Example 49] gave an EC50 at adenosine A1 receptor of 0.3 nM.

In the case of `CNC(=O)c1cc(CSc2nc(N)c(C#N)c(-c3ccc(F)c(C(F)(F)F)c3)c2C#N)ccn1` [Example 50], the EC50 at adenosine A1 receptor turned out to be 0.5 nM.

Consider `CNC(=O)c1cc(CSc2nc(N)c(C#N)c(-c3cc(F)cc(F)c3)c2C#N)ccn1` [Example 51], for which, on adenosine A1 receptor, a half-maximal response (EC50) required 0.2 nM.

On to `CNC(=O)c1cc(CSc2nc(N)c(C#N)c(-c3ccc(F)c(F)c3)c2C#N)ccn1` [Example 53], for which, on adenosine A1 receptor, a half-maximal effect (EC50) was put at 0.3 nM.

Turning to `N#Cc1cnc(SCc2cccc(C(N)=O)c2)c(C#N)c1-c1ccccc1` [Example 65, 3-{[(3,5-Dicyano-4-phenylpyridin-2-yl)sulfanyl]methyl}benzenecarboxamide], the EC50 on adenosine A1 receptor is 3.3 nM; at adenosine A2b receptor, 571 nM.

`N#Cc1cnc(SCc2cccc(C(=O)NCCO)c2)c(C#N)c1-c1ccccc1` [Example 66, 3-{[(3,5-Dicyano-4-phenylpyridin-2-yl)sulfanyl]methyl}-N-(2-hydroxyethyl)benzenecarboxamide] returned an EC50 at adenosine A1 receptor of 1.3 nM.

Compound `CNC(=O)c1cc(CSc2nc(N3CC(O)C3)c(C#N)c(-c3ccc(OC)cc3)c2C#N)ccn1` [Example 72] showed an EC50 at adenosine A1 receptor of 0.5 nM.

`CNC(=O)c1cc(CSc2nc(N3CC(O)C3)c(C#N)c(-c3ccc(F)c(F)c3)c2C#N)ccn1` [Example 74] returned an EC50 on adenosine A1 receptor of 2.4 nM.

In the case of `CNC(=O)c1cc(CSc2nc(N3CC[C@@H](O)C3)c(C#N)c(-c3ccc4c(c3)OCCO4)c2C#N)ccn1` [Example 82], the results for the EC50 at adenosine A2a receptor and at adenosine A1 receptor were 1980 nM and 0.2 nM, respectively.

`CNC(=O)c1cc(CSc2nc(NCCO)c(C#N)c(-c3ccc(OC)cc3)c2C#N)ccn1` [Example 84] yielded an EC50 at adenosine A1 receptor of 0.4 nM.

Turning to `N#Cc1c(SCc2ccnc(C(=O)NC3CC3)c2)nc(N2CCCC2)c(C#N)c1-c1ccccc1` [Example 85], the EC50 on adenosine A2a receptor amounted to 1020 nM; at adenosine A1 receptor, 0.5 nM.

At adenosine A1 receptor, `CNC(=O)c1cc(CSc2nc(NCC(O)C(F)(F)F)c(C#N)c(-c3ccccc3)c2C#N)ccn1` (stereo not shown) [Example 87] displayed an EC50 of 0.6 nM.

As for `CNC(=O)c1cc(CSc2nc(NCCO)c(C#N)c(-c3ccccn3)c2C#N)ccn1` [Example 88], the EC50 worked out at 1980 nM at adenosine A2a receptor and 0.7 nM on adenosine A1 receptor.

As for `CNC(=O)c1cc(COc2nc(N3CC(O)C3)c(C#N)c(-c3ccccc3)c2C#N)ccn1` [Example 93, 4-({[3,5-Dicyano-6-(3-hydroxyazetidin-1-yl)-4-phenylpyridin-2-yl]oxy}methyl)-N-methylpyridine-2-carboxamide], at adenosine A1 receptor, it took 0.9 nM to reach a half-maximal effect (EC50).

As to `CNC(=O)c1cccc(CSc2nc(N3CC[C@@H](O)C3)c(C#N)c(-c3ccc(OCCO)cc3)c2C#N)c1` [Example 94, 3-[({3,5-Dicyano-4-[4-(2-hydroxyethoxy)phenyl]-6-[(3R)-3-hydroxypyrrolidin-1-yl]pyridin-2-yl}-sulfanyl)methyl]-N-methylbenzenecarboxamide], on adenosine A1 receptor, the midpoint of the response, the EC50, lay at 0.2 nM.

For `N#Cc1c(N)nc(SCc2cccc(C(=O)NC[C@@H](O)CO)c2)c(C#N)c1-c1ccc(F)cc1` [Example 96, 3-({[6-Amino-3,5-dicyano-4-(4-fluorophenyl)pyridin-2-yl]sulfanyl}methyl)-N-[(2R)-2,3-dihydroxypropyl]benzenecarboxamide], the EC50 at adenosine A1 receptor was 0.4 nM; at adenosine A2b receptor it was 204 nM.

The term EC50 denotes the concentration giving half of the maximal effect.
